From article PMC4882559, “Novel Azetidine-Containing TZT-1027 Analogues as Antitumor Agents” (Marine Drugs, 2016)
Converted amounts (≈) assume the structure as drawn. “Also recorded” adds a separate entry of the source.

Legend:
[1] = Liver microsomes metabolic stability, mouse
[2] = Solubility of 1a; assay type: physicochemical
[3] = system: HCT116 human colon cancer cells; assay: Cancer cell proliferation inhibition (MTT assay), HCT116; assay type: cell-based; settings: 72 h incubation, mean ± SD of at least three independent experiments
Experimental: The following cell lines were used for the screening stage, obtained from American Type Culture Collection (ATCC, Manassas, VA, USA); HCT116 human colon cancer cells and A549 human lung carcinoma cell lines were cultured in RPMI 1640 medium supplemented with 10% FBS. Cell cultures were maintained in a humidified atmosphere of 5% CO2 at 37 °C. Cells were seeded at 2000 cells per well in 96-well plates in a volume of 200 μL per well. The test compounds were dissolved in DMSO and diluted with culture medium to different concentrations. After seeding for 24 h, the medium was removed, and […] of the test compound solution was added in duplicates and incubation continued for 72 h at 37 °C in a humidified atmosphere containing 5% CO2. Control cells were treated with vehicle alone. During the last 4 h of incubation, the cells were exposed to tetrazolium dye (MTT) solution (5 mg/mL, […] per well). The generated formazan crystals were dissolved in […] of dimethyl sulfoxide (DMSO), and the absorbance was read spectrophotometrically at 570 nm using an enzyme-linked immunosorbent assay plate reader. The data was calculated using Graph Pad Prism version 5.0 (GraphPad Softwrae, La Jolla, CA, USA). The IC50s were fitted using a non-linear regression model with a sigmoidal dose response.

[4] = Liver microsomes metabolic stability, rat
[5] = system: Human A549 xenograft; assay: In vivo efficacy study, A549 xenograft model; parameters: species or system BALB/c athymic mice; settings: for Tumor volume: n = 6, mean (SD on next line); for Relative tumor volume: RTV = Vt/V0, n = 6, mean ± SD
Text: Pathogen-free, 4–6 week-old, female BALB/c athymic mice (Shanghai SCXK Laboratory Animal Technology Co. Ltd., Shanghai, China) were housed under sterile conditions. Human A549 xenograft was established in the right flanks of athymic mice according to the protocol of the National Cancer Institute. When the tumor reached a volume of 100 mm^3, the mice were randomly assigned into control (n = 6 per group) and treatment groups (n = 6 per group). Control group were given lactate buffer, and treatment groups were iv administered with tested compounds. The size of tumor was measured individually on the indicated days. Tumor volume (V) was calculated as V = (length × width^2)/2. The individual relative tumor volume (RTV) was calculated as follows: RTV = Vt/V0, where Vt represented the last tumor size measurement and V0 represented the pre-dosing tumor size measurement. The animal experimental protocols were approved by the Animal Ethics Committee of School of Pharmacy, Fudan University and the mice were treated in accordance with international animal ethics guidelines.

[6] = Liver microsomes metabolic stability, human

CC[C@H](C)[C@@H]([C@@H](CC(=O)N1CCC[C@H]1[C@H](OC)[C@@H](C)C(=O)N1CC(c2ccccc2)C1)OC)N(C)C(=O)[C@@H](NC(=O)C(C(C)C)N(C)C)C(C)C (stereo in doubt) [1a, (S)-2-((R)-2-(Dimethylamino)-3-methylbutanamido)-N-((3R,4S,5S)-3-methoxy-1-((S)-2-((1R,2R)-1-methoxy-2-methyl-3-oxo-3-(3-phenylazetidin-1-yl)propyl)pyrrolidin-1-yl)-5-methyl-1-oxoheptan-4-yl)-N,3-dimethylbutanamide]
T1/2 ([1]; Mouse liver microsomes, metabolic stability, 1 μM): less than 2 min
Clint ([1]; Mouse, apparent intrinsic clearance, 1 μM): 2981.16 mL/min/kg
half-life at 1 μM ([1]; mouse, microsomes): 1.83 min
solubility ([2]; distilled water, pH 7.4, water): 346 µg/mL (≈ 485 µM)
solubility (in words) ([2]; limited exploration of higher in vivo dosage): poor solubility
IC50 [3]: 2.1 ± 0.4 nM
Clint ([4]; Rat, apparent intrinsic clearance, 1 μM): 262.12 mL/min/kg
half-life at 1 μM ([4]; rat, microsomes): 9.48 min
Tumor volume ([5]; 1 mg/kg iv once a day, day 1): 149.56 mm3
Relative tumor volume ([5]; 1 mg/kg iv once a day, day 4): 1.27 ± 0.37
Tumor volume ([5]; 1 mg/kg iv once a day, day 4): 185.88 mm3
Relative tumor volume ([5]; 1 mg/kg iv once a day, day 7): 1.65 ± 0.57
Tumor volume ([5]; 1 mg/kg iv once a day, day 7): 248.97 mm3
Relative tumor volume ([5]; 1 mg/kg iv once a day, day 10): 2.29 ± 0.76
Tumor volume ([5]; 1 mg/kg iv once a day, day 10): 341.75 mm3
Relative tumor volume ([5]; 1 mg/kg iv once a day, day 13): 2.69 ± 0.9
Tumor volume ([5]; 1 mg/kg iv once a day, day 13): 395.43 mm3
Relative tumor volume ([5]; 1 mg/kg iv once a day, day 16): 3.62 ± 1.05
Tumor volume ([5]; 1 mg/kg iv once a day, day 16): 530.82 mm3
Relative tumor volume ([5]; 1 mg/kg iv once a day, day 19): 3.86 ± 1.34
Tumor volume ([5]; 1 mg/kg iv once a day, day 19): 563.52 mm3
Relative tumor volume ([5]; 1 mg/kg iv once a day, day 22): 4.69 ± 1.74
Tumor volume ([5]; 1 mg/kg iv once a day, day 22): 662.64 mm3
Relative tumor volume ([5]; 2 mg/kg iv once a day, day 4): 1.3 ± 0.22
Tumor volume ([5]; 2 mg/kg iv once a day, day 4): 214.97 mm3
Relative tumor volume ([5]; 2 mg/kg iv once a day, day 7): 1.8 ± 0.31
Tumor volume ([5]; 2 mg/kg iv once a day, day 7): 287.02 mm3
Relative tumor volume ([5]; 2 mg/kg iv once a day, day 10): 2.44 ± 0.46
Tumor volume ([5]; 2 mg/kg iv once a day, day 10): 381.31 mm3
Relative tumor volume ([5]; 2 mg/kg iv once a day, day 13): 3.22 ± 0.6
Tumor volume ([5]; 2 mg/kg iv once a day, day 13): 508.66 mm3
Relative tumor volume ([5]; 2 mg/kg iv once a day, day 16): 4.34 ± 0.97
Tumor volume ([5]; 2 mg/kg iv once a day, day 16): 682.39 mm3
Relative tumor volume ([5]; 2 mg/kg iv once a day, day 19): 5.15 ± 1.13
Tumor volume ([5]; 2 mg/kg iv once a day, day 19): 813.25 mm3
Relative tumor volume ([5]; 2 mg/kg iv once a day, day 22): 5.5 ± 2.15
Tumor volume ([5]; 2 mg/kg iv once a day, day 22): 862.75 mm3
Tumor volume ([5]; 5 mg/kg iv once a day, day 1): 205.7 mm3
Relative tumor volume ([5]; 5 mg/kg iv once a day, day 4): 1.37 ± 0.34
Tumor volume ([5]; 5 mg/kg iv once a day, day 4): 266.39 mm3
Relative tumor volume ([5]; 5 mg/kg iv once a day, day 7): 1.53 ± 0.41
Tumor volume ([5]; 5 mg/kg iv once a day, day 7): 287.02 mm3
Relative tumor volume ([5]; 5 mg/kg iv once a day, day 10): 2.05 ± 0.62
Tumor volume ([5]; 5 mg/kg iv once a day, day 10): 380.17 mm3
Relative tumor volume ([5]; 5 mg/kg iv once a day, day 13): 2.7 ± 0.88
Tumor volume ([5]; 5 mg/kg iv once a day, day 13): 487.47 mm3
Relative tumor volume ([5]; 5 mg/kg iv once a day, day 16): 2.97 ± 0.91
Tumor volume ([5]; 5 mg/kg iv once a day, day 16): 554.26 mm3
Relative tumor volume ([5]; 5 mg/kg iv once a day, day 19): 3.51 ± 0.82
Tumor volume ([5]; 5 mg/kg iv once a day, day 19): 668.46 mm3
Relative tumor volume ([5]; 5 mg/kg iv once a day, day 22): 4.19 ± 1.41
Tumor volume ([5]; 5 mg/kg iv once a day, day 22): 789.59 mm3
toxicity and weight loss ([5]; 1, 2 and 5 mg/kg/day iv for 22 days, A549 xenograft mice): no overt toxicity and weight-loss; also recorded: did not show any severe toxicity
Clint ([6]; Human, apparent intrinsic clearance, 1 μM): 92.93 mL/min/kg
half-life at 1 μM ([6]; human, microsomes): 18.7 min
